From patent publication US6534522B2, “Subtype-selective NMDA receptor ligands and the use thereof” (Warner-Lambert Company, priority 1995, dated 2003)
Where a name gives a salt, the structure may show the parent alone. Read-outs that look alike come from different tables or passages of the source.

Tests used:
[1] = tested on: Maximal Electroshock-induced Seizures; assay: Maximal electroshock-induced seizures; type: in vivo, mice; settings: Mus musculus, read-out: Mes. ED50
Protocol: Maximal Electroshock-induced Seizures. Seizures were induced by application of current (50 mA, 60 pulses/sec, 0.8 sec pulse width, 1 sec duration, d.c.) through saline-coated corneal electrodes using a Ugo Basile ECT device (Model 7801). […] A tonic seizure was defined as a hindlimb extension in excess of 90 degrees from the plane of the body. Results were treated in a quantal manner.

NR1A/2C NMDA receptor = NR1A/2C NMDA receptor (Rattus norvegicus, UniProt P35439+Q00961); assay: Xenopus oocyte expression system, two-electrode voltage clamp, NR1A/2C; type: cell-based
From the text: (§1) Electrophysiological assays may be utilized to characterize the actions of potential subtype-selective ligands at NMDA receptors expressed in Xenopus oocytes. The ligand may be assayed at the different subunit combinations of cloned rat NMDA receptors corresponding to the four putative NMDA receptor subtypes (Moriyoshi et al., Nature (Lond.) 354:31-37 (1991); Monyer et al., Science (Washington, D.C.) 256:1217-1221 (1992); Kutsuwada et al., Nature (Lond.) 358:36-41 (1992); Sugihara et al., Biochem. Biophys. Res. Comm. 185:826-832 (1992)).
(§2) Using fixed saturating concentrations of agonists (glutamate 100 μM, glycine 1-10 μM depending on subunit combination), the inhibitory potency of a putative subtype-selective ligand may be assayed at the NMDA receptors assembled from NR1A/2A, NR1A/2B, NR1A/2C and NR1A/2D subunit combinations.
(§3) The Xenopus oocyte expression system. Mature female Xenopus laevis were anaesthetized (20-40 min) using 0.15% 3-aminobenzoic acid ethyl ester (MS-222) and 2-4 ovarian lobes were surgically removed. Oocytes at developmental stages IV-VI (Dumont, J. N., J. Morphol. 136:153-180 (1972)), were dissected from the ovary still surrounded by enveloping ovarian tissues. Follicle-enclosed oocytes were micro-injected with 1:1 mixtures of cRNA:NR1A+NR2A, 2B, 2C or 2D; injecting ˜2, 5, or 20 ng of RNA encoding each receptor subunit. NR1A encoding cRNA was injected alone at ˜20 ng. Oocytes were stored in Barth's medium containing (in mM): NaCl, 88; KCl, 1; CaCl2, 0.41; Ca(NO3)2, 0.33; MgSO4, 0.82; NaHCO3, 2.4; HEPES 5; pH 7.4, with 0.1 mg/mL gentamycin sulphate. While oocytes were still surrounded by enveloping ovarian tissues the Barth's medium was supplemented with 0.1% bovine serum. Oocytes were defolliculated 1-2 days following injections by treatment with collagenase (0.5 mg/mL Sigma Type I for 0.5-1 hr) (Miledi and Woodward, J. Physiol. (Lond.) 416:601-621 (1989)) and subsequently stored in serum-free medium.
(§4) Electrical recordings were made using a conventional two-electrode voltage clamp (Dagan TEV-200) over periods ranging between 3-21 days following injection. Oocytes were placed in a 0.1 mL recording chamber continuously perfused (5-15 mL min^−1) with frog Ringer's solution containing (in mM): NaCl, 115; KCl, 2; CaCl2, 1.8; HEPES, 5; pH 7.4. Drugs were applied by bath perfusion. When using the more rapid flow rates, half-times for mid-chamber solution changes were between 2-3 sec, however, exchange rates for drug solutions at the oocyte surface (i.e. beneath the vitelline envelope and among the tangles of microvilli) were probably considerably longer (Woodward et al., Mol. Pharmacol. 41:89-103 (1992)). Zero-Ca^2+/Ba^2+ Ringer had the composition (in mM): NaCl, 115; KCl, 2; BaCl2, 1.8; HEPES, 5; pH 7.4. Intraoocyte injections were made by pneumatic pressure-pulse ejection from micropipettes (Miledi and Parker, J. Physiol. (Lond.) 357:173-183 (1984)). Injection solutions of EGTA (40-400 mM) and BAPTA (50-500 mM) were made up in H2O, pH adjusted to 7.4 with KOH or HCl, and filtered to minimize plugging (Acrodisc-13, […]). Pressure was set between 200-400 kPa. The volume of injections was regulated by adjusting the time of pulses (0.1-1 sec) and was estimated by measuring the diameters of ejected droplets.
(§5) Concentration-inhibition curves were fit with equation 2.
(§6) I/Icontrol=1/(1+([antagonist]/10^−pIC50)^n) Eq. 2
(§7) in which Icontrol is the current evoked by agonists alone, pIC50=−log IC50, […] is the concentration of antagonist that produces half maximal inhibition, and n is the slope factor. For incomplete curves analysis by fitting was unreliable and IC50 values were calculated by simple regression over linear portions of the curves (Origin: Microcal Software).
(§8) Drugs were initially dissolved at concentrations of 10-100 mM in DMSO. Dilutions were then made to generate a series of DMSO stock solutions over the range 10 μM to 100 mM. Working solutions were made by 1000-3000 fold dilution of stocks into Ringer. […]

NR1A/2B NMDA receptor = NR1A/2B NMDA receptor (Rattus norvegicus, UniProt P35439+Q00960); assay: Xenopus oocyte expression system, two-electrode voltage clamp, NR1A/2B; type: cell-based
From the text: as §1, §2, §3, §4, §5, §6, §7, §8

NR1A/2A NMDA receptor = NR1A/2A NMDA receptor (Rattus norvegicus, UniProt P35439+Q00959); assay: Xenopus oocyte expression system, two-electrode voltage clamp, NR1A/2A; type: cell-based
From the text: as §1, §2, §3, §4, §5, §6, §7, §8

[2] = mice, tonic hindlimb extensor response after corneal current 50 mA
[3] = cloned NR1A/2C subunits expressed in Xenopus oocytes, inhibition of agonist-evoked membrane current, read-out: 1A/2C IC50
[4] = cloned NR1A/2B subunits expressed in Xenopus oocytes, inhibition of agonist-evoked membrane current, read-out: 1A/2B IC50
[5] = cloned NR1A/2A subunits expressed in Xenopus oocytes, inhibition of agonist-evoked membrane current, read-out: 1A/2A IC50

Chain of NR1A/2C NMDA receptor (Q00961 20-1237, other chains not shown): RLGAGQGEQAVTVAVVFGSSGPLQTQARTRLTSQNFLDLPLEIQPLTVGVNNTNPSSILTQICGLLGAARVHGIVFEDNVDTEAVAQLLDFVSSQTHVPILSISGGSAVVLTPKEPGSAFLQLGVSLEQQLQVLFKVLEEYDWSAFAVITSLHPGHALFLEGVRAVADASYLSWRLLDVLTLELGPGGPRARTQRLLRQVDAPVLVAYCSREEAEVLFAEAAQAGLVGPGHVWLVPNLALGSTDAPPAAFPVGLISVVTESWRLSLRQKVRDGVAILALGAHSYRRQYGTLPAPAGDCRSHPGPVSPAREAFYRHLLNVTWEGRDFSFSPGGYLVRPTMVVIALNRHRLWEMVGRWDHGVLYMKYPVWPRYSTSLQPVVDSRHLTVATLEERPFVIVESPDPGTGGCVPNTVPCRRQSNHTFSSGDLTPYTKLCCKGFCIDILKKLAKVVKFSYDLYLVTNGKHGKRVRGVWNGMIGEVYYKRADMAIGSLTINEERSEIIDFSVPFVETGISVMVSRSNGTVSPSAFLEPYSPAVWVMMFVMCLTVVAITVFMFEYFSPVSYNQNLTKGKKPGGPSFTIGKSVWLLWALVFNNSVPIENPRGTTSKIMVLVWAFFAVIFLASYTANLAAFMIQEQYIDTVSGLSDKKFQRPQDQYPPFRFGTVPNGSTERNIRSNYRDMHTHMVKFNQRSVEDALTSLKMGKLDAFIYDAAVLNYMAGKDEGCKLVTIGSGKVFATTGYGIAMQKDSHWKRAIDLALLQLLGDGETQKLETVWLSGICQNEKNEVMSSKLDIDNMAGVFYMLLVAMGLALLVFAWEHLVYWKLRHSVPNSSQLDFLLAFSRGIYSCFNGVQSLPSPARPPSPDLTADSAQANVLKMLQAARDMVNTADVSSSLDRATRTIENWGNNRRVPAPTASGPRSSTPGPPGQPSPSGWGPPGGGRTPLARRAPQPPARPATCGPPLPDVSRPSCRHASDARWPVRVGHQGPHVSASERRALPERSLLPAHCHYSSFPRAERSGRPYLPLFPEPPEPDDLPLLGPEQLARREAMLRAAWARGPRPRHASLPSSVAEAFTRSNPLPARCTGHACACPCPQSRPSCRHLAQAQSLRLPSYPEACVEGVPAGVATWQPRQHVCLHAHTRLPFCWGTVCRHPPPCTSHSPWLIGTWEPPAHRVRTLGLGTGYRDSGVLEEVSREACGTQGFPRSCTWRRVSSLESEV
Chain of NR1A/2A NMDA receptor (Q00959 20-1464 limits assumed, other chains not shown): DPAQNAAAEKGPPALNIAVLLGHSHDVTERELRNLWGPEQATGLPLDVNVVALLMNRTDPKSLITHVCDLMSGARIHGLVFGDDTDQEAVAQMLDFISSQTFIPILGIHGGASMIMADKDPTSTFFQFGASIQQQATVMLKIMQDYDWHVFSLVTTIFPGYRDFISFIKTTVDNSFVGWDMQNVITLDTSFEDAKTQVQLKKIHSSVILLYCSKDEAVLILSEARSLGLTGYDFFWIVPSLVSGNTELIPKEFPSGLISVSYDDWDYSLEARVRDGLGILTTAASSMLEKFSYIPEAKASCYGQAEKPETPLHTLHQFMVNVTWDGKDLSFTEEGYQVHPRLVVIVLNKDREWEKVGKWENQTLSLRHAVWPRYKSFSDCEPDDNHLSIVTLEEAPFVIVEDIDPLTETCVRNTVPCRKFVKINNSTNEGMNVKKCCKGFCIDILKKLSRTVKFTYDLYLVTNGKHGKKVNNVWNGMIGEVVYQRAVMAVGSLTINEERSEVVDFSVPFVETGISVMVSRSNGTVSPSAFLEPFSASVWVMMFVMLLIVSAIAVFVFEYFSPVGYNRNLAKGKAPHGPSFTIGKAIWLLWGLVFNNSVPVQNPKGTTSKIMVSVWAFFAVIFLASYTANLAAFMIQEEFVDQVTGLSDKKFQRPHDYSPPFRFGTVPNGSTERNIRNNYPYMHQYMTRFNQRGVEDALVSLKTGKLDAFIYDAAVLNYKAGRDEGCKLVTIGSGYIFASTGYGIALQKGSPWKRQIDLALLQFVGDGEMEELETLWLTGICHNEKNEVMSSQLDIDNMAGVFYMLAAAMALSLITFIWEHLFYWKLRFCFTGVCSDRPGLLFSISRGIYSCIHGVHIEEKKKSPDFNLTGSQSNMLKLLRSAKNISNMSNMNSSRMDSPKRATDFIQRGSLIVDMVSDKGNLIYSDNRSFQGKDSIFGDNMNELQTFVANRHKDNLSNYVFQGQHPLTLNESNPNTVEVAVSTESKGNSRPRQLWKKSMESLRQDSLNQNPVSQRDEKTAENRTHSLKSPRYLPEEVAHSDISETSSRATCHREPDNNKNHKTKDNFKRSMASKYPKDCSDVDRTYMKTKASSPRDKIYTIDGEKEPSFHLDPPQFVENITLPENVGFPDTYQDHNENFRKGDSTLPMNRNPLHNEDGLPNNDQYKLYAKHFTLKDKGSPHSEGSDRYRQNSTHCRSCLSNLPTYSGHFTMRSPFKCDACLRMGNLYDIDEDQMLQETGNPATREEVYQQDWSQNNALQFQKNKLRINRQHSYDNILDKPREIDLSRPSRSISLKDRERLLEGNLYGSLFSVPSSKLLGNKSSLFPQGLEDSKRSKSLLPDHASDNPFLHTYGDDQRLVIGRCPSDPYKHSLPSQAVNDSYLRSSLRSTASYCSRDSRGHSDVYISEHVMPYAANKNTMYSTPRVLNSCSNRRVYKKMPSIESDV
Chain of NR1A/2B NMDA receptor (Q00960 27-1482, other chains not shown): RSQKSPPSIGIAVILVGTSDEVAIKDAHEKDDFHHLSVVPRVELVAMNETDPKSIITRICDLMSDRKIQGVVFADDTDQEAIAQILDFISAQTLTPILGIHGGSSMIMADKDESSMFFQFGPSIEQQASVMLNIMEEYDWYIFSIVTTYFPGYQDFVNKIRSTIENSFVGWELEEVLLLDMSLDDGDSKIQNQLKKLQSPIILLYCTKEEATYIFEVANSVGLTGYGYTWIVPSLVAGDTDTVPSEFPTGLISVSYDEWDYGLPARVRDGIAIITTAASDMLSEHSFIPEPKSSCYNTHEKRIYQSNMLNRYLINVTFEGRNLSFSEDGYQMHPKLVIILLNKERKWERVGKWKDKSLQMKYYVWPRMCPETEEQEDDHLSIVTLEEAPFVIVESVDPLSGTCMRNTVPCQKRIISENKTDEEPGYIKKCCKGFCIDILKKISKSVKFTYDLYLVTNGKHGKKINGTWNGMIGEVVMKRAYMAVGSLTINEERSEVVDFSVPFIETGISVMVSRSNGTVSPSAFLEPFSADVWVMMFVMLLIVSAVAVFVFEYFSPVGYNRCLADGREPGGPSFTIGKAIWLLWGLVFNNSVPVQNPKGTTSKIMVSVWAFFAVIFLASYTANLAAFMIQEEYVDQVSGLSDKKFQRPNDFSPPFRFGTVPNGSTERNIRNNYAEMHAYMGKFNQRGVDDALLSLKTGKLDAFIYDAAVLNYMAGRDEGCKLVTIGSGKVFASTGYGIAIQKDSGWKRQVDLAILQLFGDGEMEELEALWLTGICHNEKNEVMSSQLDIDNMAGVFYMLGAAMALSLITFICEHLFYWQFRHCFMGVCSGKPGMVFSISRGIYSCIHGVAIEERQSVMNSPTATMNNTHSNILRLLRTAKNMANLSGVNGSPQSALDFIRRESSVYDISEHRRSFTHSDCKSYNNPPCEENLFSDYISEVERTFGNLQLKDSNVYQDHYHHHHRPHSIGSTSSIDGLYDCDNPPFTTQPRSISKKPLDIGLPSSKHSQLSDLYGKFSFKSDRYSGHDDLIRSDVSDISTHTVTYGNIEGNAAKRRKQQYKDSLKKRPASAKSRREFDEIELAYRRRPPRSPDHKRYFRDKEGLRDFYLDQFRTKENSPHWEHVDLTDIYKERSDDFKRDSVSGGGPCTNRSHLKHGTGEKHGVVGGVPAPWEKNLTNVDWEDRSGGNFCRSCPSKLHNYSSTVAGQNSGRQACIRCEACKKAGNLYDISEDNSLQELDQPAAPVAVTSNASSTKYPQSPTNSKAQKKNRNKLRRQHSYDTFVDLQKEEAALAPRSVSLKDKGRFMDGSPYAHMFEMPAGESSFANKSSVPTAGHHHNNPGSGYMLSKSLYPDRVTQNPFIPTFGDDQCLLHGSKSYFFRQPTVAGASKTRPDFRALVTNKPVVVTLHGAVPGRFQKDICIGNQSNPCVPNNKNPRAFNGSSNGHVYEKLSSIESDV

melting point | Structure (SMILES) | ED50 [1, 2] | IC50 (NR1A/2C NMDA receptor; [3]) | IC50 (NR1A/2B NMDA receptor; [4]) | IC50 (NR1A/2A NMDA receptor; [5]) | ED50 [1] | IC50 (NR1A/2C NMDA receptor) | IC50 (NR1A/2B NMDA receptor) | IC50 (NR1A/2A NMDA receptor)
– | OCCCN1CCC(Cc2ccc(Cl)cc2)CC1 [Ex. 89, 4-(4-Chlorobenzyl)-1-(3-hydroxypropyl) piperidine hydrobromide] | 5 mg/kg | > 100 µM | 300 nM | 150 µM | – | – | – | –
96 to 101 °C | CC(O)CCN1CCC(Cc2ccc(Cl)cc2)CC1.Cl (stereo not shown) [Ex. 99, 4-(4-chlorobenzyl)-1-(3-hydroxybutyl) piperidine hydrochloride] | 6 mg/kg | > 300 µM | 1600 nM | > 300 µM | – | – | – | –
– | OCCCN1CCC(Cc2ccccc2)CC1 [Ex. 83, 4-Benzyl-1-(3-hydroxypropyl)piperidine hydrobromide] | – | > 300 µM | 1800 nM | 224 µM | 3.5 mg/kg | – | – | –
– | COc1ccc(CC2CCN(CCCO)CC2)cc1 [Ex. 93, 1-(3-Hydroxypropyl)-4-(4-methoxybenzyl) piperidine hydrobromide] | – | > 300 µM | 9000 nM | > 300 µM | 8 mg/kg | – | – | –
134 to 136 °C | Cc1ccc(CC2CCN(CCC(C)O)CC2)cc1.Cl (stereo not shown) [Ex. 104, 4-(4-methylbenzyl)-1-(3-hydroxy-butyl) piperidine hydrochloride] | 2 mg/kg | > 300 µM | 800 nM | 110 µM | – | – | – | –
– | CC(O)CCN1CCC(Cc2ccc(F)cc2)CC1 (stereo not shown) [Ex. 91, 4-(4-Fluorobenzyl)-1-(3-hydroxybutyl) piperidine hydrochloride] | – | > 300 µM | 2500 nM | 230 µM | 6 mg/kg | – | – | –

Structure (SMILES) | melting point | ED50 [1, 2] | IC50 (NR1A/2C NMDA receptor; [3]) | IC50 (NR1A/2B NMDA receptor; [4]) | IC50 (NR1A/2A NMDA receptor; [5]) | ED50 [1] | IC50 (NR1A/2C NMDA receptor) | IC50 (NR1A/2B NMDA receptor) | IC50 (NR1A/2A NMDA receptor)
CC(O)CCN1CCC(Cc2ccccc2)CC1.Cl (stereo not shown) [Ex. 100, 4-benzyl-1-(3-hydroxy-butyl) piperidine hydrochloride] | 133 to 135 °C | – | – | – | – | 3.5 mg/kg | > 300 µM | 3000 nM | > 300 µM
